Measurements taken from US8372889B2, “Methods for modulating metabolism” (Omega Biopharma (I.P.3) Limited, priority 2004, dated 2013).
Structures can show the parent of a compound that is named as a salt.

Assays:
fat-feed rats = assay: Lipids, free fatty acid and uric acid in fat-feed rats (Example 5); type: in vivo, rat; details: for CH / FFA / HDL / LDL / TG / UA: Mean + STD
glut 4 = glut 4 expression in different tissues of GK diabetic rats (Example 3); type: in vivo, rat; details: liver, muscles, adipocytes
Experimental: Thirty-six Goto-Kakizaki Wistar (GK) rats (purchased from Shanghai Slaccas Laboratory Animal Center) aged about 13 weeks and weighting 321-323 g were acclimated to the animal facility for two weeks in individual cages. Food and water were provided ad libitum. The 36 GK rats were divided into 4 groups based on body weight (BW) and plasma glucose level. […] Group 2 (DC, n=6) was treated with cysteamine hydrochloride by gavage (22.5 mg/kg BW in 2 ml tap water); […] All animals were treated at 10:00 for 20 days.

normal Wistar rats = assay: Fasting plasma glucose and insulin in normal Wistar rats (Example 2); type: in vivo, rat; details: for Fasting glucose / Fasting insulin: normal Wistar rats, Mean ± STD
Experimental: Thirty-two male Wistar rats (purchased from Shanghai Slaccas Laboratory Animal Center) aged about 13 weeks and weighting around 300 g were acclimated to the animal facility for two weeks in individual cages. Food and water were provided ad libitum. The Wistar rats were divided randomly into 4 groups and each group contained 8 rats. […] All animals were treated at 10:00 for 27 days. The four groups of animals were kept in the same room in different cages with wire mesh bottoms to reduce coprophagia throughout the experiment. […] Plasma glucose concentrations were determined by Glucotrendr2 equipment (Roche Diagnostics, Basel, Switzerland). Plasma insulin concentrations were determined by radioimmunoassay (Insulin RIA Kit, NO:0410, purchased from Shanghai Radioimmunoassay Research Institution). The abbreviation STD denotes the variability of the data about the mean or “standard deviation.” The abbreviation p denotes the level of significance of the results.

diabetic patients = assay: Open-label, randomized trial in diabetes type II patients (Example 4); details: for 24 h Microalbuminuria, Pre-treatment / FBS (fasting blood sugar), Pre-treatment / FCP (C peptide), Pre-treatment / FINS (fasting insulin), Pre-treatment / HOMA (Homeostasis Model Assessment), Pre-treatment / IGF, Pre-treatment / UA (blood uric acid), Pre-treatment: baseline before the trial treatment
Experimental: A small open-label, randomized trial was carried out at the national reference center for diabetes in China. Sixty patients of both sexes (ages ranged from 30 to 75 years old) diagnosed with diabetes type II were recruited. All subjects were informed and gave their consent to participate. Diabetes was diagnosed based on the WHO criteria set in 1999. […] Patients with the following conditions were excluded from the study: (1) dysfunction of heart, liver and/or kidney; (2) with acute diabetic complications and/or any acute cardiovascular complications or other chronic diseases in the past three months; and (3) pregnancy or nursing.
Patients were divided randomly into four groups of 15 patients each. A control group of subjects was not administered anti-diabetic drugs. The cysteamine alone (DC) group was treated with 540 mg/day of cysteamine hydrochloride. In the Metformin alone (Met) group, the dose of Metformin remained unchanged during the two months period. For the DC+Met group, patients remained on the same dose of Metformin they were originally administered, including an additional 100 mg/day of cysteamine hydrochloride. All patients were subjected to treatments for two months and samples were collected and measured at the beginning of, one month after, and two month after the trial for analysis. The results described herein are derived from the samples collected and measured at the beginning of the first month after the trial.

GK diabetic rats [1] = assay: Plasma insulin and adiponectin in GK diabetic rats (Example 3); type: in vivo, rat
Experimental: (§1) Thirty-six Goto-Kakizaki Wistar (GK) rats (purchased from Shanghai Slaccas Laboratory Animal Center) aged about 13 weeks and weighting 321-323 g were acclimated to the animal facility for two weeks in individual cages. Food and water were provided ad libitum.
(§2) The 36 GK rats were divided into 4 groups based on body weight (BW) and plasma glucose level. Group 1 (control, n=10) was treated with saline by gavage (2 ml/rat); Group 2 (DC, n=6) was treated with cysteamine hydrochloride by gavage (22.5 mg/kg BW in 2 ml tap water); Group 3 (Metformin, Met, n=10) was treated with Metformin by gavage (34 mg/kg BW in 2 ml tap water); Group 4 (Met+DC, n=10) was treated with Metformin 34 mg/kg BW/day in 2 ml tap water for the first 10 days and then was treated with both cysteamine hydrochloride 22.5 mg/kg BW plus Metformin 34 mg/kg BW in 2 ml tap water for the second 10 days. All animals were treated at 10:00 for 20 days.
The four groups of animals were kept in the same room (temp 23±3° ., relative humidity 65±1%) in different cages with wire mesh bottoms to reduce coprophagia throughout the experiment. The rats were subjected to fasting overnight from 22:00 to 9:30 of the following day before being subjected to a glucose tolerance test. The rats were treated with glucose 2 g/kg BW in 2 ml tap water at 9:30 for the glucose tolerance test and the blood was collected from the tail vein at 0.5 hr, 1 hr, 2 hr, and 3 hr after glucose injection. Plasma glucose concentrations were determined by Glucotrendr2 equipment (Roche Diagnostics, Basel, Switzerland). Plasma insulin concentrations were determined by radioimmunoassay (Insulin RIA Kit, NO:0410, purchased from Shanghai Radioimmunoassay Research Institution).

GK diabetic rats [2] = assay: Glucose tolerance test in GK diabetic rats (Example 3); type: in vivo, rat
Experimental: as §1, §2
The four groups of animals were kept in the same room (temp 23±3° ., relative humidity 65±1%) in different cages with wire mesh bottoms to reduce coprophagia throughout the experiment. […] Plasma glucose concentrations were determined by Glucotrendr2 equipment (Roche Diagnostics, Basel, Switzerland). Plasma insulin concentrations were determined by radioimmunoassay (Insulin RIA Kit, NO:0410, purchased from Shanghai Radioimmunoassay Research Institution).

[3] = test system: Goto-Kakizaki Wistar rats (GK rats); assay: Oral glucose tolerance test and starving plasma glucose in GK rats (Example 1); details: oral Metformin alone
Experimental: Nineteen male Goto-Kakizaki Wistar rats (GK rats) with weights of 300±20 g were kept in steel cages, 3-4 rats per cage. The cages were changed every two days. Indoor temperature and relative humidity was kept at 23±3° . and 65±1% respectively. Feed and drinking water was provided. GK rats were permitted a one-month period for adaptation.
One day prior to experimentation, at 17:00, all of the feed was removed from all groups, but not the drinking water. On the second day, at 09:30, starving plasma glucose was measured for all GK rats. At 10:00, glucose tolerance test (2 g/kg BW) was performed and the plasma glucose level was measured as well for all GK rats. […] On the ninth day, starving plasma glucose was measured and oral glucose tolerance test was performed again for all GK rats in all groups. […]
Six days following the change in regimen, starving plasma glucose was measured and glucose tolerance tests were performed, and blood and tissue samples were collected (liver, duodenum, pancreas gland, fat, and muscle) for all GK rats in all groups. […]
The glucose tolerance tests that were performed included the steps of starving the GK rats overnight. Next day at 09:30, starving plasma glucose was measured. […]

[4] = doses of 11.25 mg/kg and 22.5 mg/kg
[5] = DC15: 15 mg/kg BW by gavage for 27 days
[6] = DC22.5: 22.5 mg/kg BW by gavage for 27 days
[7] = DC30: 30 mg/kg BW by gavage for 27 days
[8] = normal, fasting Wistar rats, 15-30 mg/kg BW

**Q.** For `NCCS` [cysteamine hydrochloride], which “LDL (in words)” value (fat-feed rats) is on record?
**A.** decrease LDL but not significantly

**Q.** And the CH (fat-feed rats; DC11.25: 11.25 mg/kg)?
**A.** 1.6 ± 0.31 mmol/L

**Q.** And the FFA (fat-feed rats; DC11.25: 11.25 mg/kg)?
**A.** 842 ± 256 µmol/L

**Q.** And the HDL (fat-feed rats; DC11.25: 11.25 mg/kg)?
**A.** 1.11 ± 0.16 mmol/L

**Q.** What about the LDL (fat-feed rats; DC11.25: 11.25 mg/kg) of the same molecule?
**A.** 0.61 ± 0.18 mmol/L

**Q.** And the TG (fat-feed rats; DC11.25: 11.25 mg/kg)?
**A.** 1.15 ± 0.12 mmol/L

**Q.** And the UA (fat-feed rats; DC11.25: 11.25 mg/kg)?
**A.** 17.41 ± 1.99 mg/L

**Q.** What about the CH (fat-feed rats; DC22.5: 22.5 mg/kg) of the same molecule?
**A.** 1.55 ± 0.27 mmol/L

**Q.** And the FFA (fat-feed rats; DC22.5: 22.5 mg/kg)?
**A.** 1087 ± 181 µmol/L

**Q.** And the HDL (fat-feed rats; DC22.5: 22.5 mg/kg)?
**A.** 1.04 ± 0.09 mmol/L

**Q.** And the LDL (fat-feed rats; DC22.5: 22.5 mg/kg)?
**A.** 0.63 ± 0.18 mmol/L

**Q.** What about the TG (fat-feed rats; DC22.5: 22.5 mg/kg) of the same molecule?
**A.** 1.1 ± 0.08 mmol/L

**Q.** And the UA (fat-feed rats; DC22.5: 22.5 mg/kg)?
**A.** 16.12 ± 1.04 mg/L

**Q.** What about the “free fatty acid (in words)” value (fat-feed rats; at doses indicated) of the same molecule?
**A.** significantly decrease

**Q.** What about the “uric acid (in words)” value (fat-feed rats; at doses indicated) of the same molecule?
**A.** significantly decrease

**Q.** What about the “cholesterol levels (in words)” value (fat-feed rats; [4]) of the same molecule?
**A.** can decrease

**Q.** And the “triglyceride levels (in words)” value (fat-feed rats; [4])?
**A.** can decrease

**Q.** What about the “HDL (in words)” value (fat-feed rats; not significantly) of the same molecule?
**A.** trend that cysteamine can increase HDL

**Q.** What about the “expression of total glut4 (in words)” value (glut 4) of the same molecule?
**A.** significantly increase

**Q.** What about the Fasting glucose (normal Wistar rats; [5]) of the same molecule?
**A.** 4.05 ± 0.23

**Q.** And the Fasting insulin (normal Wistar rats; [5])?
**A.** 48.82 ± 3.27

**Q.** What about the Fasting glucose (normal Wistar rats; [6]) of the same molecule?
**A.** 3.94 ± 0.27

**Q.** What about the Fasting insulin (normal Wistar rats; [6]) of the same molecule?
**A.** 48.39 ± 2.38

**Q.** What about the Fasting glucose (normal Wistar rats; [7]) of the same molecule?
**A.** 3.95 ± 0.17

**Q.** And the Fasting insulin (normal Wistar rats; [7])?
**A.** 51.32 ± 2.94

**Q.** What about the “blood glucose levels (in words)” value (normal Wistar rats; [8]) of the same molecule?
**A.** dose-dependent effect on lowering

**Q.** And the “blood insulin levels (in words)” value (normal Wistar rats; [8])?
**A.** does not affect

**Q.** And the “C peptide (CP) (in words)” value (diabetic patients)?
**A.** decreases significantly

**Q.** And the “HOMA (Homeostasis Model Assessment) (in words)” value (diabetic patients)?
**A.** decreases significantly

**Q.** And the “blood uric acid (UA) levels (in words)” value (diabetic patients)?
**A.** decreases significantly

**Q.** And the “fasting insulin (FINS) (in words)” value (diabetic patients)?
**A.** decreases significantly

**Q.** And the “insulin-like growth factor 1 (IGF1) (in words)” value (diabetic patients)?
**A.** decreases significantly

**Q.** And the “microalbuminuria (in words)” value (diabetic patients)?
**A.** obvious but not statistically significantly

**Q.** What about the “24 h Microalbuminuria, Pre-treatment” value (diabetic patients) of the same molecule?
**A.** 42.73 ± 31.33

**Q.** What about the “FBS (fasting blood sugar), Pre-treatment” value (diabetic patients) of the same molecule?
**A.** 7.52 ± 1.57

**Q.** What about the “FCP (C peptide), Pre-treatment” value (diabetic patients) of the same molecule?
**A.** 739 ± 183

**Q.** And the “FINS (fasting insulin), Pre-treatment” value (diabetic patients)?
**A.** 35.39 ± 14.43

**Q.** And the “HOMA (Homeostasis Model Assessment), Pre-treatment” value (diabetic patients)?
**A.** 11.94 ± 4.62

**Q.** And the “IGF, Pre-treatment” value (diabetic patients)?
**A.** 49.36 ± 5.75

**Q.** What about the “UA (blood uric acid), Pre-treatment” value (diabetic patients) of the same molecule?
**A.** 389 ± 50.98

**Q.** And the “adiponectin (in words)” value (GK diabetic rats [1])?
**A.** significantly increased

**Q.** And the “insulin levels (in words)” value (GK diabetic rats [1])?
**A.** did not affect

**Q.** What about the “Glucose tolerance test, plasma glucose, 2 hr” value (GK diabetic rats [2]; gavage DC 22.5 mg/kg BW, Metformin 34 mg/kg BW, 20 days, Met+DC: DC added for second 10 days, after glucose 2 g/kg BW, Mean ± STD) of the same molecule?
**A.** 11.00 ± 0.8 mmol/L

**Q.** What about the “glucose levels (in words)” value (GK diabetic rats [2]; glucose tolerance test, combination compared with Metformin alone, all time points except Fasting) of the same molecule?
**A.** did not affect

**Q.** What does the source list for `CN(C)C(=N)N=C(N)N` [Metformin, reference compound]?
**A.** expression of total glut4 (in words) (glut 4): increased, but not significantly; insulin-like growth factor 1 (IGF1) (in words) (diabetic patients): only a decrease; 24 h Microalbuminuria, Pre-treatment (diabetic patients): 27.5 ± 23.69; FBS (fasting blood sugar), Pre-treatment (diabetic patients): 8.92 ± 2.7; FCP (C peptide), Pre-treatment (diabetic patients): 579 ± 212; FINS (fasting insulin), Pre-treatment (diabetic patients): 19.35 ± 10.2; HOMA (Homeostasis Model Assessment), Pre-treatment (diabetic patients): 7.33 ± 3.3; IGF, Pre-treatment (diabetic patients): 52.81 ± 10.04; UA (blood uric acid), Pre-treatment (diabetic patients): 320 ± 67; insulin levels (in words) (GK diabetic rats [1]): decreased, but not statistically significant; duodenal plasma glucose levels and insulin resistance (in words) [3]: to some extent, lowers
